Test results as given in patent publication US7153869B2, “Substituted amino acids as erythropoietin mimetics” (priority 1998, dated 2006).
Read-outs that look alike come from different tables or passages of the source.

Target: T1, EBP-Ig (N-terminal 225 amino acids of the human EPO receptor joined to an Ig heavy chain) (Homo sapiens, UniProt P19235)
T1 construct: Ig heavy chain (fusion partner); made in house; host or cells: NSO cells (secreted into conditioned media)
T1 sequence (P19235 25-250 limits assumed): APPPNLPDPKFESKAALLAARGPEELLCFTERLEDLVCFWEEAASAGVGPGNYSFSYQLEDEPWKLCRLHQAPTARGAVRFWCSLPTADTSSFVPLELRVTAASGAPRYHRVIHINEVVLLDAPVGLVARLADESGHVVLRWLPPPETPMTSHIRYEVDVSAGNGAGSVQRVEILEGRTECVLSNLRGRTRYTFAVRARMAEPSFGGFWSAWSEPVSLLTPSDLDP
Assay: Inhibition of [125I]EPO binding to immobilized EBP-Ig (EPO binding protein-Ig), scintillation Flash plate competition assay
Conditions: for IC30 μM (Inhibition of EPO binding to EBP-Ig): 0–500 μM test compound; for % inh @ 50 μM (Inhibition of EPO binding to EBP-Ig): 50 μM test compound, average % inhibition
From the text: The interaction of biotin and streptavidin is frequently employed to capture and effectively immobilize reagents useful in assay protocols and has been employed here as a simple method to capture and immobilize EBP-Ig. EBP-Ig is initially randomly modified with an amine reactive derivative of biotin to produce biotinylated-EBP-Ig. Use of streptavidin coated plates allows the capture of the biotinylated EBP-Ig on the surface of a scintillant impregnated coated well (Flash plates, NEN-DuPont). […] The amount of light produced was quantified to estimate the amount of ligand binding. The specific assay format was suitable for the multi-well plate capacity of a Packard TopCount Microplate Scintillation counter.
Biotinylated EBP-Ig was prepared as follows. EBP-Ig (3 mL, OD280 2.9) was exchanged into 50 mM sodium bicarbonate, pH 8.5 using a Centriprep 10 ultrafiltration device. The final volume of the exchanged protein was 1.2 mL (OD280 2.6, representing about 2 mg total protein). 10 μL of a 4 mg/ml solution of NHS-LC-Biotin (Pierce) was added and the reaction mixture placed on ice in the dark for two hours. Unreacted biotin was removed by exchange of the reaction buffer into PBS in a Centriprep 10 device and the protein reagent aliquoted and stored at −70° C.
All wells were adjusted to a final DMSO concentration of 5%. […] After all additions were made, the plate was covered with an adhesive top seal and placed in the dark at room temperature overnight. The next day all liquid was aspirated from the wells to limit analyte dependent quench of the signal, and the plates were counted on a Packard TOPCOUNT Microplate Scintillation Counter. […] Corrected total binding (CTB) was calculated as: TB−NSB=CTB. […] Table 1 lists the average % inhibition, and if determined the IC50 and IC30 values for compounds of Formula I, where the compound numbers refer to the compounds in the tables accompanying the preparative examples.

[1] = read-out: % inh @ 50 μM (Inhibition of EPO binding to EBP-Ig)
[2] = read-out: EPO/EBP-Ig % inh @ 50 μM, Table 7, 50 μM

| SMILES | IC30 μM (Inhibition of EPO binding to EBP-Ig) (0.5 nM [125I]EPO) | inhibition at 50 µM [1] | EPO/EBP-Ig % inh @ 50 μM (Table 7, 50 μM) | EPO/EBP-Ig % inh @ 50 μM (50 μM compound, Table 9) | further results |
| --- | --- | --- | --- | --- | --- |
| O=C(O)CC(C(=O)O)N(C/C=C/c1cccc(Oc2ccccc2)c1)C/C=C/c1cccc(Oc2ccccc2)c1 (centres unmarked) [compound 108] | 23 µM | 81% | – | – | inhibition at 50 µM (read-out: EPO/EBP-Ig % inh @ 50 μM, Table 6, 50 μM): 81% |
| COC(=O)C(CCCCNC(=O)OC(C)(C)C)N(Cc1cccc(OCc2ccccc2)c1)Cc1cccc(OCc2ccccc2)c1 (centres unmarked) [compound 109] | – | – | 7% | – | – |
| COC(=O)C(CCCCN)N(Cc1ccc(OCc2ccccc2)cc1)Cc1ccc(OCc2ccccc2)cc1 (centres unmarked) [compound 110] | 6 µM | 54% | – | – | inhibition at 50 µM [2]: 54% |
| COC(=O)C(CCCCN)N(Cc1cccc(OCc2ccccc2)c1)Cc1cccc(OCc2ccccc2)c1 (centres unmarked) [compound 112] | 2 µM | – | 59% | – | % inh @ 50 μM (Inhibition of EPO binding to EBP-Ig) (0.5 nM [125I]EPO): 59%; IC50 (read-out: IC50, μM (Inhibition of EPO binding to EBP-Ig), 0.5 nM [125I]EPO, concentration reducing corrected total binding to 50%): 10 µM |
| COC(=O)C(CCCCN)N(Cc1ccc(OCc2ccccc2)cc1)Cc1cccc([N+](=O)[O-])c1 (centres unmarked) [compound 114] | 10 µM | 37% | – | – | inhibition at 50 µM [2]: 37% |
| COC(=O)C(CCCCN)N(Cc1ccc(OCc2ccccc2)cc1)Cc1cccc(N)c1 (centres unmarked) [compound 115] | – | 35% | – | – | inhibition at 50 µM [2]: 35% |
| CCCCC(=O)Nc1cccc(CN(Cc2ccc(OCc3ccccc3)cc2)C(CCCCN)C(=O)OC)c1 (centres unmarked) [compound 116] | – | – | 32% | – | % inh @ 50 μM (Inhibition of EPO binding to EBP-Ig) (0.5 nM [125I]EPO): 32% |
| COC(=O)C(CCCCN)N(Cc1ccc(OCc2ccccc2)cc1)Cc1cccc(NC(=O)c2ccc(C)cc2)c1 (centres unmarked) [compound 118] | 2 µM | 36% | – | – | IC50: 10 µM; inhibition at 50 µM [2]: 36% |
| COC(=O)C(CCCCN)N(Cc1ccc(OCc2ccccc2)cc1)Cc1cccc(NC(=O)C(C)C)c1 (centres unmarked) [compound 119] | – | – | 34% | – | % inh @ 50 μM (Inhibition of EPO binding to EBP-Ig) (0.5 nM [125I]EPO): 34% |
| COC(=O)C(CCCCN)N(Cc1ccc(OCc2ccccc2)cc1)Cc1cccc(NC(=O)c2ccncc2)c1 (centres unmarked) [compound 120] | – | – | 35% | – | % inh @ 50 μM (Inhibition of EPO binding to EBP-Ig) (0.5 nM [125I]EPO): 35% |
| COC(=O)C(CCCCN)N(Cc1ccc(OCc2ccccc2)cc1)Cc1cccc(NC(=O)c2ccc3ccccc3c2)c1 (centres unmarked) [compound 121] | 6 µM | – | 45% | – | % inh @ 50 μM (Inhibition of EPO binding to EBP-Ig) (0.5 nM [125I]EPO): 45% |
| COC(=O)C(CCCCN)N(C/C=C/c1cccc(Oc2ccccc2)c1)Cc1cccc(Oc2ccccc2)c1 (centres unmarked) [compound 137] | 5 µM | 60% | – | – | IC50: 30 µM |
| COC(=O)C(CCCCN)N(C/C=C/c1cccc(Oc2ccc(C(C)(C)C)cc2)c1)Cc1cccc(OCc2ccccc2)c1 (centres unmarked) [compound 139] | 2 µM | 46% | – | – | IC50: 10 µM |
| COC(=O)C(CCCCNC(=O)OCc1ccccc1)N(C/C=C/c1ccccc1)C/C=C/c1ccccc1 (centres unmarked) [compound 171] | – | – | – | nb | – |
| O=C(NCCCCC(C(=O)O)N(C/C=C/c1ccccc1)C/C=C/c1ccccc1)OCc1ccccc1 (centres unmarked) [compound 172] | – | – | – | 15% | – |
| CC(C)(C)OC(=O)C(CCCCNC(=O)OCc1ccccc1)N(C/C=C/c1ccccc1)C/C=C/c1ccccc1 (centres unmarked) [compound 173] | – | – | – | 5% | – |
| COC(=O)C(CCCCNC(=O)OCc1ccccc1)N(C/C=C/c1ccc(OC)cc1)C/C=C/c1ccc(OC)cc1 (centres unmarked) [compound 174] | – | – | – | 23% | – |
| COC(=O)C(CCCCNC(=O)OCc1ccccc1)N(C/C=C/c1ccc2ccccc2c1)C/C=C/c1ccc2ccccc2c1 (centres unmarked) [compound 175] | – | – | – | 1% | – |
| COC(=O)C(CCCCNC(=O)OCc1ccccc1)N(C/C=C/c1cccc(Oc2ccccc2)c1)C/C=C/c1cccc(Oc2ccccc2)c1 (centres unmarked) [compound 176] | – | – | – | −4% | – |
